Results taken from patent US11583516B2, “Dash inhibitors, and uses related thereto” (Trustees of Tufts College, priority 2016, dated 2023).
Like-named read-outs stand apart in the source and are kept apart here.

Assays:
RAW 264.7 WT cells = test: Pyroptosis IC50 in cells; format: cell-based
MOLM-13 cells = test: Cell line drug sensitivity (CellTiter-Glo); format: cell-based; conditions: MOLM-13, AML M5; 48 h; read-out: IC50
Method: (§1) SET-2, RS4;11, and SKM-1 cells were purchased from DSMZ. HL-60, MV4;11, OCI-AML2, NB4, MOLM-13, NOMO-1, DAOY, HEL, IMR-5, K562, Kasumi-1, ONS-76, RDES-1, and TC-71 cells were a gift from Alex Kentsis and verified using STR genotyping (Genetica). […] MCF-7, Jurkat, THP-1, U937, HL-60, MV4;11, OCI-AML2, NB4, MOLM-13, NOMO-1, HEL, K562, SET-2, RS4;11, SKM-1 and Kasumi-1 were grown in RPMI-1640 medium with 10% FBS. All cells were grown at 37° C. in a 5% CO2 incubator. Cell lines were tested for mycoplasma using the MycoAlert Mycoplasma Detection Kit (Lonza).
(§2) Cells were plated (2000 cells/well) in white, 384-well clear bottom plates using an EL406 Microplate Washer/Dispenser (BioTek) in 25 μL final volume of media. Compounds were added using a pintool (CyBio) and cells were incubated for 48 h at 37° C. Assay plates were then removed from the incubator and allowed to equilibrate to room temperature on the bench top before addition of 10 μL of CellTiter-Glo reagent (Promega) according to the manufacturer's instructions. Assay plates were shaken on an orbital shaker for 2 minutes and incubated at room temperature on the bench top for 10 minutes. Luminescence was then read using a Cytation 5 Cell Imaging Multi-Mode Reader (BioTek). (FIG. 6)

RDES-1 cells = test: Cell line drug sensitivity (CellTiter-Glo); format: cell-based; conditions: RDES-1, Ewing's sarcoma; 48 h; read-out: IC50
Method: as §1, §2

U937 cells = test: Cell line drug sensitivity (CellTiter-Glo); format: cell-based; conditions: U937, AML/histiocytic lymphoma M5; 48 h; read-out: IC50
Method: as §1, §2

K562 cells = test: Cell line drug sensitivity (CellTiter-Glo); format: cell-based; conditions: K562, CML/Erythroleukemia; 48 h; read-out: IC50
Method: as §1, §2

Kasumi-1 cells = test: Cell line drug sensitivity (CellTiter-Glo); format: cell-based; conditions: Kasumi-1, AML M2; 48 h; read-out: IC50
Method: as §1, §2

Jurkat cells = test: Cell line drug sensitivity (CellTiter-Glo); format: cell-based; conditions: T-ALL, 48 h, read-out: IC50
Method: as §1, §2

SET-2 cells = test: Cell line drug sensitivity (CellTiter-Glo); format: cell-based; conditions: SET-2, AML/MPN; 48 h; read-out: IC50
Method: as §1, §2

NOMO-1 cells = test: Cell line drug sensitivity (CellTiter-Glo); format: cell-based; conditions: NOMO-1, AML M5; 48 h; read-out: IC50
Method: as §1, §2

HEL cells = test: Cell line drug sensitivity (CellTiter-Glo); format: cell-based; conditions: AML/Erythroleukemis M6, 48 h, read-out: IC50
Method: as §1, §2

OCI-AML3 cells = test: Cell line drug sensitivity (CellTiter-Glo); format: cell-based; conditions: OCI-AML3, AML M4; 48 h; read-out: IC50
Method: as §1, §2

KG-1 cells = test: Cell line drug sensitivity (CellTiter-Glo); format: cell-based; conditions: KG-1, AML M0; 48 h; read-out: IC50
Method: as §1, §2

HL-60 cells = test: Cell line drug sensitivity (CellTiter-Glo); format: cell-based; conditions: HL-60, AML M2; 48 h; read-out: IC50
Method: as §1, §2

MCF7 cells = test: Cell line drug sensitivity (CellTiter-Glo); format: cell-based; conditions: MCF7, Breast; 48 h; read-out: IC50
Method: as §1, §2

HT-1080 cells = test: Cell line drug sensitivity (CellTiter-Glo); format: cell-based; conditions: HT-1080, Fibrosarcoma; 48 h; read-out: IC50
Method: as §1, §2

SKM-1 cells = test: Cell line drug sensitivity (CellTiter-Glo); format: cell-based; conditions: SKM-1, AML M5; 48 h; read-out: IC50
Method: as §1, §2

THP-1 cells = test: Cell line drug sensitivity (CellTiter-Glo); format: cell-based; conditions: THP-1, AML M5; 48 h; read-out: IC50
Method: as §1, §2

DAOY cells = test: Cell line drug sensitivity (CellTiter-Glo); format: cell-based; conditions: DAOY, Medulloblastoma; 48 h; read-out: IC50
Method: as §1, §2

IMR-5 cells = test: Cell line drug sensitivity (CellTiter-Glo); format: cell-based; conditions: IMR-5, Neuroblastoma; 48 h; read-out: IC50
Method: as §1, §2

TC-71 cells = test: Cell line drug sensitivity (CellTiter-Glo); format: cell-based; conditions: TC-71, Ewing's sarcoma; 48 h; read-out: IC50
Method: as §1, §2

ONS-76 cells = test: Cell line drug sensitivity (CellTiter-Glo); format: cell-based; conditions: ONS-76, Medulloblastoma; 48 h; read-out: IC50
Method: as §1, §2

CT26 cells = test: CT26 cell viability; format: cell-based
RS4;11 cells = test: Cell line drug sensitivity (CellTiter-Glo); format: cell-based; conditions: RS4;11, AML/B-ALL; 48 h; read-out: IC50
THP-1 sgGFP = test: Pyroptosis IC50 in cells; format: cell-based
MV4;11 cells = test: Cell line drug sensitivity (CellTiter-Glo); format: cell-based; conditions: MV4;11, AML M5; 48 h; read-out: IC50
MV4;11 Luc-Neo = test: Pyroptosis IC50 in cells; format: cell-based
G-CSF = test: Serum cytokine induction in mice (G-CSF screen); format: in vivo, BALB/c mice
Description: No. MKC00B) • IL-18 (R&D Systems, Cat. […] Systems, Cat. No. […])

MB49 tumor = test: MB49 efficacy studies; format: in vivo, C57BL/6 mice
CT26 tumor = format: in vivo; conditions: CT26 model
NB4 cells = test: Cell line drug sensitivity (CellTiter-Glo); format: cell-based; conditions: NB4, AML/APL M3; 48 h; read-out: IC50
AML cell lines = test: AML cell line sensitivity, summary over the panel; format: cell-based; conditions: most of these AML cell lines
Method: as §1, §2

cancer = conditions: in the clinic; cited from earlier work
[1] = Maximum tolerated dose study (single dose); format: in vivo, Sprague Dawley rats; conditions: with Pyrrophenone or AACOCF3, based on serum drug levels
Description: Bars show the MTD single dose in SD rats prior to seeing animal death. […] See also FIG. 33 for a similar comparison using cPLA2 inhibitors instead of COX inhibitors.
Bars show the MTD single dose in SD rats prior to seeing animal death. Based on serum drug levels, the addition of a cPLA2 inhibitors to the I-DASH inhibitor increases that MTD dose by at least 20-fold.
Bars show the MTD single dose in SD rats prior to seeing animal death.

With `CC(C)[C@H](N)C(=O)N1CCC[C@H]1B(O)O` [ARI-2054, Valine-boroProline] the IC50 (RAW 264.7 WT cells) was 0.098 µM, the IC50 (MOLM-13 cells) was 0.12 µM and the IC50 (RDES-1 cells) was > 60 µM. For the same molecule, the IC50 (U937 cells) was > 60 µM, the IC50 (K562 cells) was > 60 µM and the IC50 (Kasumi-1 cells) was > 60 µM. The IC50 (Jurkat cells) was > 60 µM, the IC50 (SET-2 cells) was 0.006 µM and the IC50 (NOMO-1 cells) was 0.16 µM. The IC50 (HEL cells) was > 60 µM, the IC50 (OCI-AML3 cells) was 0.08 µM and the IC50 (KG-1 cells) was 0.02 µM. For the same molecule, the IC50 (HL-60 cells) was 0.115 µM, the IC50 (MCF7 cells) was > 60 µM and the IC50 (HT-1080 cells) was > 60 µM. The IC50 (SKM-1 cells) was 0.044 µM, the IC50 (THP-1 cells) was 0.206 µM and the IC50 (DAOY cells) was > 60 µM. The IC50 (IMR-5 cells) was > 60 µM, the IC50 (TC-71 cells) was > 60 µM and the IC50 (ONS-76 cells) was > 60 µM. The EC50 (CT26 cells) was > 1000 µM, the IC50 (RS4;11 cells) was 0.147 µM and the IC50 (THP-1 sgGFP) was 0.168 µM. The IC50 (MV4;11 cells) was 0.078 µM, the IC50 (MV4;11 Luc-Neo) was 0.06 µM and the “Average [G-CSF] at 6 hrs” value (G-CSF; 20 μg/animal PO) was 55000 pg/mL. The “Average [G-CSF] at 6 hrs” value (G-CSF; 20 μg/animal SC) was 97000 pg/mL, the “Tumor regression in combination with celecoxib” value (MB49 tumor; 20 microgram dose of Val-boroPro plus celecoxib) was “facilitated the achievement of tumor regression” and the “Antitumor activity in combination with celecoxib” value (MB49 tumor; Val-boroPro plus celecoxib) was “increased the antitumor activity of Val-boroPro markedly (statistically significantly) and in a dose-dependent manner”. The “Inhibition of tumor growth (average)” value (CT26 tumor; 10 micrograms) was “about 30%”, the “Inhibition of tumor growth (average)” value (CT26 tumor; 20 micrograms) was ~80% and the IC50 (NB4 cells) was 0.1 µM. For the same molecule, the IC50 (AML cell lines) was > 0.1 µM, the Clinical response (cancer) was “some partial and complete responses” and the Clinical toxicity (cancer) was “discontinued due to dose-limiting toxicity”. For the same molecule, the “Increase of MTD dose by addition of a cPLA2 inhibitor” value [1] was “at least 20 fold”.
